Data on one compound can be found in patent publication US10889812B2, “Short non-coding protein regulatory RNAs (sprRNAs) and methods of use” (University of Maryland, Baltimore, priority 2014, dated 2021).

For one test, the system named is H1944. Briefly: MTT assay, IC50 of CDDP in NSCLC cell lines. Type of test: cell-based, Human. Here is the method:
(§1) Cell viability and cell growth curve assay were determined by MTT assay and trypan blue exclusion assay, respectively as described previously (Kirino, Y. & Mourelatos, Z. Mouse Piwi-interacting RNAs are 2′-O-methylated at their 3′ termini Nat Struct Mol Biol. 14, 347-348 (2007)). BrieflySpecifically, MTT (5 mg/ml) was added into cells and incubated at culture condition for 3 hours, removed the medium carefully and dissolved formazan in DMSO, assay was used to assess the surviving cells and OD values were measured using Microplate Reader Manager (Bio Rad) at wavelengths of 570/690 nm. For trypan blue exclusion assay, cells were washed in PBS for three times, and dyed in 0.4% tyrpan blue solution. Unstained viable cells were counted in hemocytometer chamber under microscope. Each experiment was performed three times independently.
(§2) To determine if piRNA-Ls play a role in chemo-sensitivity, we first selected 11 piRNA-Ls differentially expressed between NSCLC and HBE cells (Mei Y, Wang Y, Kumari P, et al. A piRNA-like small RNA interacts with and modulates p-ERM proteins in human somatic cells. Nat Commun 6, 7316. doi: 10.1038/ncomms8316 (2015)) and analyzed the relationship between the expression levels and the sensitivities to chemotherapeutic agents commonly used clinically for patients with NSCLC. We established doses of 50% inhibitory concentration (IC50) for CDDP, gemcitabine, and docetaxel in 4 SCC and 4 ADC cell lines based on 3-(4,5-dimethylthiazol-2-yl)-2,5-diphenyltetrazolium bromide (MTT) assay (Table 4). We then measured expression levels of the 11 selected piRNA-Ls using real-time RT-PCR before and 24 h after treatment with both IC50 (H) and IC25 (L) doses for each of the agents. […] Impact of gemcitabine and docetaxel in piR-L-138 expression was also determined in these NSCLC cell lines (FIG. 19). As CDDP is the backbone agent to treat patients with NSCLC, we selected CDDP as the representative agent to further determine the role of piR-L-138 in SCC cells' response to chemotherapy.

Another test relates to H226. The test is described as follows: MTT assay, IC50 of CDDP in NSCLC cell lines. The format is cell-based, Human. The procedure: as §1, §2
For a further test, the system named is SKMES-1. Briefly: MTT assay, IC50 of CDDP in NSCLC cell lines. Type of test: cell-based, Human. The note with it: SKMES-1, MTT assay. The procedure: as §1, §2
(Tetrazolium assays rely on reduction of a dye to a coloured formazan, in cell work by metabolically active cells.)

A further test deals with H522. Briefly: MTT assay, IC50 of CDDP in NSCLC cell lines. The format is cell-based, Human. Here is the method:
as §1, §2

The next test relates to H596. Briefly: MTT assay, IC50 of CDDP in NSCLC cell lines. Type of test: cell-based, Human. Here is the method: as §1, §2
A further test deals with H157. Briefly: MTT assay, IC50 of CDDP in NSCLC cell lines. Type of test: cell-based, Human. The procedure: as §1, §2
The next test has as its system H1437. The test is described as follows: MTT assay, IC50 of CDDP in NSCLC cell lines. Type of test: cell-based, Human. The procedure:
as §1, §2

The subject of another test is H1792. Briefly: MTT assay, IC50 of CDDP in NSCLC cell lines. The format is cell-based, Human. Here is the method: as §1, §2
Test [1] concerns piR-L-138. Briefly: piR-L-138 expression by real-time RT-PCR after chemotherapeutic agent, ADC cell lines. The note with it: 24 h after treatment. Type of test: cell-based, human.
Source text: as §2

In test [2] the test system is piR-L-138. Briefly: piR-L-138 expression by real-time RT-PCR after chemotherapeutic agent, SCC cell lines. The note with it: all SCC cell lines, 24 h after treatment. Type of test: cell-based, human.
Source text: as §2
In general terms: Quantitative PCR measures a nucleic acid by following its amplification.

For `[NH2][Pt]([NH2])([Cl])[Cl]` [CDDP, cisplatin], the IC50 (usually the concentration that inhibits the measured activity by half) in the test with H1944 turned out to be 100 µM; in the test on H226, 40 µM; with SKMES-1, 10 µM; in the test on H522, 45 µM; in the test on H596, 30 µM; in the test with H157, 80 µM. Further, the IC50 in the test with H1437 and with H1792 was 50 µM throughout. The piR-L-138 expression result in the test on piR-L-138 [1] is on record as “no or much smaller increase of piR-L-138 expression”. In addition, in the test on piR-L-138 [2], the piR-L-138 levels result was “consistent and substantial increase of piR-L-138 levels”.
